Laboratory results: patent publication EP0407583A1, “DERIVATIVES OF DICHLOR[…] ACYLAMIDO[…] AND INSECTICIDAL, FU[…] HEMATOCIDAL PREPARATIONS BASED ON THEM” (priority 1989, dated 1990)

How the values were obtained:
[1] = system: Alternaria sobani; assay: Inhibition of phytopathogenic fungi growth, laboratory test on potato-dextrose agar; format: cell-based; settings: active principle 0.01 % by mass in potato-dextrose agar
Protocol: (§1) A fungicidal composition based on this compound was prepared in the form of a 0.01% solution thereof in distilled water. A fungicidal action of the composition, according to the invention, was tested for inhibition of vegetative fungi growth such as Fusarium moniliforme, Ventura inaequalis, Rhyzoctonia ciolaceae, Botrytis cinereae, Verticillium albo-atrum, Diplodia zeae, Fusarium oxysporum, Rhoma betae, Rhyzoctonia aderholdii, Aspergillus niger, Alternaria sobani, Botrytis allii, Aspergillus fumigatis, Fusarium culmorum, Penicillium cyclopium affecting potato, sugar beet, cotton seeds either in laboratory or field conditions. For testing it to the Petri dishes containing potato-dextrose agar the composition of the invention was.added at the concentration of an active principle of 0.01 % by mass. The Petri dishes containing the same agar culture were inoculated with a mycelium of phytopathogenic fungi. For control dishes the phytopathogenic fungi were inoculated on agar without using the composition of the invention. A fungicidal effect of the composition, according to the invention was tested in comparison with the known fungicidal compositions based on 2,3-dichloro-1,4-naphthoquinone, zinc N,N'-ethylene-bis-dithiocarbamate and tetramethylthiuram disulphide.

[2] = system: Aspergillus fumigatis; assay: as above; format: cell-based; settings: active principle 0.01 % by mass in potato-dextrose agar
Protocol: as §1

[3] = system: Aspergillus niger; assay: as above; format: cell-based; settings: active principle 0.01 % by mass in potato-dextrose agar
Protocol: as §1

[4] = system: Botrytis allii; assay: as above; format: cell-based; settings: active principle 0.01 % by mass in potato-dextrose agar
Protocol: as §1

[5] = system: Botrytis cinereae; assay: as above; format: cell-based; settings: active principle 0.01 % by mass in potato-dextrose agar
Protocol: as §1

[6] = system: Diplodia zeae; assay: as above; format: cell-based; settings: active principle 0.01 % by mass in potato-dextrose agar
Protocol: as §1

[7] = system: Fusarium culmorum; assay: as above; format: cell-based; settings: active principle 0.01 % by mass in potato-dextrose agar
Protocol: as §1

[8] = system: Fusarium moniliforme; assay: as above; format: cell-based; settings: active principle 0.01 % by mass in potato-dextrose agar
Protocol: as §1

[9] = system: Fusarium oxysporum; assay: as above; format: cell-based; settings: active principle 0.01 % by mass in potato-dextrose agar
Protocol: as §1

[10] = system: Penicillium cyclopium; assay: as above; format: cell-based; settings: active principle 0.01 % by mass in potato-dextrose agar
Protocol: as §1

[11] = system: Rhoma betae; assay: as above; format: cell-based; settings: active principle 0.01 % by mass in potato-dextrose agar
Protocol: as §1

[12] = system: Rhyzoctonia aderholdii; assay: as above; format: cell-based; settings: active principle 0.01 % by mass in potato-dextrose agar
Protocol: as §1

[13] = system: Rhyzoctonia violaceae; assay: as above; format: cell-based; settings: active principle 0.01 % by mass in potato-dextrose agar
Protocol: as §1

[14] = system: Venturia inaequalis; assay: as above; format: cell-based; settings: active principle 0.01 % by mass in potato-dextrose agar
Protocol: as §1

[15] = system: Verticillium albo-atrum; assay: as above; format: cell-based; settings: active principle 0.01 % by mass in potato-dextrose agar
Protocol: as §1

[16] = system: Alternaria sobani; assay: Inhibition of phytopathogenic fungi, field test on affected potato plants; format: in vivo; settings: 5 m^2 plots of affected potato plants sprayed
From the text: (§2) For field tests the plots of 5 m^2 in size with potato plants affected by Fusarium moniliforme, Venturia inaequalis, Rhyzoctonia violaceae, Botrytis cinereae, Verticillium albo-atrum, Diplodia zeae, Fusarium oxysporum, Rhoma betae, Rhyzoctonia aderholdii, Aspergillus niger, Alternaria sobani, Botrytis allii, Aspergillus fumigatis, Fusarium culmorum, Penicillium cyclopium were sprayed with the fungicide of the invention. To compare, the similar plots of the affected potato plants were aprayed with the known compositions indicated above.

[17] = system: Aspergillus fumigatis; assay: as above; format: in vivo; settings: 5 m^2 plots of affected potato plants sprayed
From the text: as §2

[18] = system: Aspergillus niger; assay: as above; format: in vivo; settings: 5 m^2 plots of affected potato plants sprayed
From the text: as §2

[19] = system: Botrytis allii; assay: as above; format: in vivo; settings: 5 m^2 plots of affected potato plants sprayed
From the text: as §2

[20] = system: Botrytis cinereae; assay: as above; format: in vivo; settings: 5 m^2 plots of affected potato plants sprayed
From the text: as §2

[21] = system: Diplodia zeae; assay: as above; format: in vivo; settings: 5 m^2 plots of affected potato plants sprayed
From the text: as §2

[22] = system: Fusarium culmorum; assay: as above; format: in vivo; settings: 5 m^2 plots of affected potato plants sprayed
From the text: as §2

[23] = system: Fusarium moniliforme; assay: as above; format: in vivo; settings: 5 m^2 plots of affected potato plants sprayed
From the text: as §2

[24] = system: Fusarium oxysporum; assay: as above; format: in vivo; settings: 5 m^2 plots of affected potato plants sprayed
From the text: as §2

[25] = system: Penicillium cyclopium; assay: as above; format: in vivo; settings: 5 m^2 plots of affected potato plants sprayed
From the text: as §2

[26] = system: Rhoma betae; assay: as above; format: in vivo; settings: 5 m^2 plots of affected potato plants sprayed
From the text: as §2

[27] = system: Rhyzoctonia aderholdii; assay: as above; format: in vivo; settings: 5 m^2 plots of affected potato plants sprayed
From the text: as §2

[28] = system: Rhyzoctonia violaceae; assay: as above; format: in vivo; settings: 5 m^2 plots of affected potato plants sprayed
From the text: as §2

[29] = system: Venturia inaequalis; assay: as above; format: in vivo; settings: 5 m^2 plots of affected potato plants sprayed
From the text: as §2

[30] = system: Verticillium albo-atrum; assay: as above; format: in vivo; settings: 5 m^2 plots of affected potato plants sprayed
From the text: as §2

[31] = Solubility (qualitative); settings: water, alcohols, acetone

Row | Compound | Inhibition of growth of phytopathogenic fungi colonies, % Alternaria sobani test laboratory [1] | Inhibition of growth of phytopathogenic fungi colonies, % Aspergillus fumigatis Tests laboratory [2] | Inhibition of growth of phytopathogenic fungi colonies, % Aspergillus niger test laboratory [3] | Inhibition of growth of phytopathogenic fungi colonies, % Botrytis allii test laboratory [4] | Inhibition of growth of phytopathogenic fungi colonies, % Botrytis cinereae test laboratory [5] | Inhibition of growth of phytopathogenic fungi colonies, % Diplodia zeae test laboratory [6] | Inhibition of growth of phytopathogenic fungi colonies, % Fusarium culmorum Tests laboratory [7] | Inhibition of growth of phytopathogenic fungi colonies, % Fusatium monili-forme test laboratory [8] | Inhibition of growth of phytopathogenic fungi colonies, % Fusarium oxysporum test laboratory [9] | Inhibition of growth of phytopathogenic fungi colonies, % Penicillium cyclopium Tests laboratory [10] | Inhibition of growth of phytopathogenic fungi colonies, % Rhoma betae test laboratory [11] | Inhibition of growth of phytopathogenic fungi colonies, % Rhyzoctonia aderholdii test laboratory [12] | Inhibition of growth of phytopathogenic fungi colonies, % Rhyzoctonia violaceae test laboratory [13] | Inhibition of growth of phytopathogenic fungi colonies, % Venturia inaequalis test laboratory [14] | Inhibition of growth of phytopathogenic fungi colonies, % Verticillium albo--atrum test laboratory [15] | Inhibition of growth of phytopathogenic fungi colonies, % Alternaria sobani test field [16] | Inhibition of growth of phytopathogenic fungi colonies, % Aspergillus fumigatis Tests field [17] | Inhibition of growth of phytopathogenic fungi colonies, % Aspergillus niger test field [18] | Inhibition of growth of phytopathogenic fungi colonies, % Botrytis allii test field [19] | Inhibition of growth of phytopathogenic fungi colonies, % Botrytis cinereae test field [20] | also measured
1 | O=C(NP(=O)(NC(CO)C(O)c1ccc([N+](=O)[O-])cc1)NC(CO)C(O)c1ccc([N+](=O)[O-])cc1)c1ccc(Cl)cc1 (stereo not drawn) [Example 12, para-chlorobenzoylamidophosphoric acid di-1-para-nitrophenyl-1,3-propandiol-2-amide] | 48% | 87% | 66% | 100% | 34% | 100% | 66% | 59% | 60% | 87% | 64% | 100% | 24% | 70% | 100% | 46% | 80% | 59% | 99% | 33% | Inhibition of growth of phytopathogenic fungi colonies, % Diplodia zeae test field [21]: 98%; Inhibition of growth of phytopathogenic fungi colonies, % Fusarium culmorum Tests field [22]: 61%; Inhibition of growth of phytopathogenic fungi colonies, % Fusatium monili-forme test field [23]: 56%; Inhibition of growth of phytopathogenic fungi colonies, % Fusarium oxysporum test field [24]: 59%; Inhibition of growth of phytopathogenic fungi colonies, % Penicillium cyclopium Tests field [25]: 84%; Inhibition of growth of phytopathogenic fungi colonies, % Rhoma betae test field [26]: 63%; Inhibition of growth of phytopathogenic fungi colonies, % Rhyzoctonia aderholdii test field [27]: 100%; Inhibition of growth of phytopathogenic fungi colonies, % Rhyzoctonia violaceae test field [28]: 22%; Inhibition of growth of phytopathogenic fungi colonies, % Venturia inaequalis test field [29]: 65%; Inhibition of growth of phytopathogenic fungi colonies, % Verticillium albo--atrum test field [30]: 100%; solubility [31]: soluble in water, alcohols, acetone
2 | COP(=O)(NC(=O)C(Cl)(Cl)CCl)Nc1ccccc1 (stereo not drawn) [Example 11, methyl α, α , β-trichloropropyonylamidophosphate monoanilide] | 69% | 93% | 100% | 78% | 43% | 100% | 100% | 39% | 62% | 95% | 67% | 100% | 62% | 54% | 56% | 66% | 93% | 96% | 78% | 39% | Inhibition of growth of phytopathogenic fungi colonies, % Diplodia zeae test field [21]: 98%; Inhibition of growth of phytopathogenic fungi colonies, % Fusarium culmorum Tests field [22]: 98%; Inhibition of growth of phytopathogenic fungi colonies, % Fusatium monili-forme test field [23]: 38%; Inhibition of growth of phytopathogenic fungi colonies, % Fusarium oxysporum test field [24]: 60%; Inhibition of growth of phytopathogenic fungi colonies, % Penicillium cyclopium Tests field [25]: 90%; Inhibition of growth of phytopathogenic fungi colonies, % Rhoma betae test field [26]: 65%; Inhibition of growth of phytopathogenic fungi colonies, % Rhyzoctonia aderholdii test field [27]: 100%; Inhibition of growth of phytopathogenic fungi colonies, % Rhyzoctonia violaceae test field [28]: 60%; Inhibition of growth of phytopathogenic fungi colonies, % Venturia inaequalis test field [29]: 52%; Inhibition of growth of phytopathogenic fungi colonies, % Verticillium albo--atrum test field [30]: 54%; solubility [31]: soluble in water, alcohols, acetone
3 | O=C(NP(=O)(Nc1ccc(Br)cc1)Nc1ccc(Br)cc1)c1ccc(Br)cc1 [Example 15] | 100% | 88% | 100% | 99% | 100% | 100% | 100% | 100% | 83% | 100% | 100% | 100% | 100% | 100% | 100% | 98% | 80% | 98% | 96% | 98% | Inhibition of growth of phytopathogenic fungi colonies, % Diplodia zeae test field [21]: 98%; Inhibition of growth of phytopathogenic fungi colonies, % Fusarium culmorum Tests field [22]: 100%; Inhibition of growth of phytopathogenic fungi colonies, % Fusatium monili-forme test field [23]: 99%; Inhibition of growth of phytopathogenic fungi colonies, % Fusarium oxysporum test field [24]: 81%; Inhibition of growth of phytopathogenic fungi colonies, % Penicillium cyclopium Tests field [25]: 89%; Inhibition of growth of phytopathogenic fungi colonies, % Rhoma betae test field [26]: 98%; Inhibition of growth of phytopathogenic fungi colonies, % Rhyzoctonia aderholdii test field [27]: 99%; Inhibition of growth of phytopathogenic fungi colonies, % Rhyzoctonia violaceae test field [28]: 99%; Inhibition of growth of phytopathogenic fungi colonies, % Venturia inaequalis test field [29]: 98%; Inhibition of growth of phytopathogenic fungi colonies, % Verticillium albo--atrum test field [30]: 100%; solubility [31]: soluble in water, alcohols, acetone
